This is an account of results in patent publication US20120225889A1, “USE OF MACROCYCLIC LACTONE DERIVATIVES FOR THE TREATMENT OF INFLAMMATORY DISORDERS” (PIRAMAL LIFE SCIENCES LIMITED, priority 2010, published 2012).

Experiment [1] deals with cMyc. Briefly: Gene expression profile using RTQ-PCR: cMyc. It is filed as cell-based, human. As to conditions: 3 μM. How it is done:
(§1) The effect of the compound of example 7 was measured in stimulated untreated cells from the monocytic cell line (THP-1), human monocytes and synovial cells from rheumatoid arthritis patient. The effect of the compound in the THP-1 cell line was measured in terms of gene expression and was expressed as fold changes as compared to the cell stimulated control with no drug treatment.
(§2) THP-1 cells, human monocytes and synovial cells were treated with compound of example 7 or vehicle (0.5% DMSO). Total RNA isolation using a commercial RNA extraction kit (Qiagen Corporation, Germany) The first-strand cDNA was synthesized from total RNA using first strand cDNA synthesis kit from Invitrogen Corporation (California, USA). This was followed by real time quantitative polymerase chain reaction (RTQ PCR) using gene specific primers and standard thermal program of initial denaturation at 95° C. for 5 min and cycles of 95° C. for 10 seconds, followed by 60° C. for 30 seconds (Realplex PCR machine from Eppendorf, Germany). Quantitative measurement of products made during PCR cycles was normalized against a housekeeping gene (Actin) and was used to measure the gene expression as fold changes as compared to respective control.

In experiment [2] the test system is IL-6. The experiment is described as follows: Screening in LPS stimulated THP-1 cells: IL-6. It is filed as cell-based. The settings on record: Homo sapiens, 24 h, ELISA. How it is done:
IL-6 (BD Biosciences, USA) production by LPS (Escherchia coli 0127:B8, Sigma, USA) in THP-1 cells (ATCC number: TIB202) was designed as in reference, Journal of Immunology, 151, 5631-5638, (1993), the disclosure of which is incorporated by reference for the teaching of the assay.
THP-1 cells were cultured in RPMI 1640 culture medium (Gibco BRL, UK) containing 100 U/mL penicillin and […] streptomycin, (100× solution, Sigma, USA) containing 10% FBS (JRH Biosciences, USA). 25,000 cells were seeded per well in 96-well plate (Nunc, USA). The cells were differentiated with PMA (Sigma, USA, prepared as 100 μg/mL stock in RPMI and was diluted to 5 ng/mL). The test compound (prepared as 20 mM stock in DMSO and diluted with DMSO to achieve the following final concentrations in the assay: 100, 10, 1, 0.1, 0.01, 0.001 and 0.0001 μM) or vehicle (0.5% DMSO) were added to the cells and the cells were incubated for 30 min at 37° C. LPS (Sigma, USA, prepared as 1 mg/mL stock in PBS) was added to achieve a final concentration of 1 μg/mL. Plates were incubated at 37° C. for 24 h at 5% CO2. Supernatants were harvested, and assayed for TNF-α and IL-6 by ELISA as described by the manufacturer (BD Biosciences, USA). Percent inhibition of cytokine release compared to the control was calculated. The IC50 values were calculated by a nonlinear regression method.
Background: An ELISA detects its analyte on a solid surface through an enzyme-linked reagent.

Experiment [3] has as its system DBA/1J mice with collagen induced arthritis. Briefly: Collagen-induced arthritis in mice. Format: in vivo. How it is done:
The experiment was designed as in reference, J. Experimental Medicine, 162, 637-646 (1985), the disclosure of which is incorporated by reference for the teaching of the experiment.
Male DBA/1J mice with body weight range of 18-22 g, aged 8-10 weeks were immunized with an emulsion equivalent to 200 μg of type II collagen (Elastin products, USA) in Freund's Complete Adjuvant (Sigma, USA), injected intradermally at the base of the tail. The animals were boosted with 200 μg of freshly prepared typeII collagen emulsion emulsified in Freund's Complete Adjuant (Sigma, USA) on day 21. A group of naïve mice was also maintained alongside. Naïve animals are the animals which are neither immunized for induction of arthritis nor do they receive any treatment. This group is maintained to take care of the normal changes in the paw thickness with age.
From day 23, mice were examined daily once for the signs of rheumatoid arthritis, using the articular index and paw thickness as parameters. Articular index scoring was performed employing the following criteria:
• 0: No redness or swelling • 1: Redness, but no swelling • 2: Redness and swelling of the paw • 3: Redness and severe swelling of the paw Hind limbs: Scale 0-4 • 0: No redness or swelling • 1: Redness and mild swelling of paw • 2: Redness and moderate swelling of paw and/or swelling of at least one of the digits • 3: Redness and moderate/severe swelling of paw, swelling of ankle joint and/or swelling of one or more digits • 4: Redness and severe swelling of paw, digits and ankle joint, with joint stiffness Mice with a minimum hind paw score of 2, of even one paw, were inducted into the study. Mice were randomized into the various study groups, each group having at least eight animals, and were administered the vehicle (0.5% CMC, 10 mL/kg p.o. and s.c. twice daily), the test compound (5 mg/kg, p.o. and s.c., twice daily) and standard compound Enbrel (Wyeth Limited, UK), 3 mg/kg, s.c., once daily. The test compound was administered as a suspension in CMC. The requisite quantity of the compound was accurately weighed and was hand-pulverized using pestle-mortar. After mixing with minimum quantity of Tween 80 necessary to wet the compound, requisite quantity of 0.5% CMC solution was added and the compound was ground with CMC till the uniform suspension was obtained. Standard compound ‘Enbrel’ was used as an aqueous solution. The dosing of the compounds was done for 12 continuous days.
The following parameters were observed and recorded daily, • 1. Body weight • 2. Articular index • 3. Paw thickness of hind limbs only, in mm using a tension free calipers • 4. Any significant observation regarding the condition of the animals.
On 13th day morning, 1 h after the compound treatment, the animals were sacrificed, blood withdrawn, and plasma collected for drug level analyses. Also, the hind limbs of all the animals were preserved for histopathological evaluations.

For experiment [4], the system named is BCL2. Briefly: Gene expression profile using RTQ-PCR: BCL2. Format: cell-based, human. As to conditions: 3 μM, ± SE, N = 3. The protocol: as §1, §2

The IC50 is the concentration that gives 50% inhibition.

Turning to `C/C=C/C(O)C(C)/C=C/C(=N\O)C(C)C(O)C(C)C1OC(=O)/C(OC)=C/C(C)=C/C(C)C(O)C(CC)C(O)C(C)C/C(C)=C/C=C/C1OC` (stereo not shown) [Compound of example 7, (3Z,5E,13E,15E)-18-((5Z,6E,10E)-3,9-Dihydroxy-5-(hydroxymino)-4,8-dimethyldodeca-6,10-dien-2-yl)-9-ethyl-8,10-dihydroxy-3,17-dimethoxy-5,7,11,13-tetramethyl oxacyclooctadeca-3,5,13,15-tetraen-2-one], the cMyc gene expression is recorded as −1.9 + 1.7 log fold change in experiment [1] (Human monocytes, 3 h, ± SE, N = 3); −0.5 log fold change in experiment [1] (Synovial cells, 12 h, N = 1); −1.1 log fold change in experiment [1] (THP-1 cells, 12 h, ± SE, N = 3). This molecule returned an IC50 in experiment [2] of 40 nM. Further, in experiment [3] (5.0 mg/kg CMC suspension, subcutaneously twice daily, 12 days), the severity of arthritis entry is on record as “reduced the severity of arthritis”. Moreover, the “benefit compared with Enbrel” value in experiment [3] (5.0 mg/kg s.c. twice daily vs Enbrel 3 mg/kg, s.c., once daily) was “equal to that achieved with Enbrel treatment”. Moreover, the “arthritic changes of joints (histopathology observations)” value in experiment [3] (5 mg/kg, s.c.) is “showed protection against arthritic changes with absence of hyperplasia of synovium”. In addition, in experiment [3] (compound of example 7 5 mg/kg, s.c., n=10, Enbrel 3 mg/kg, s.c., n=6, vehicle control 15.14+1.0), the “Histological score of the section of paws” value is given as 3.6+1.54. The BCL2 gene expression in experiment [4] (Human monocytes, 3 h) is listed as −1.7 + 0.4 log fold change; in experiment [4] (THP-1 cells, 12 h) it was −1.3 ± 0.8 log fold change.
